Laboratory results published in patent US5795885A, “Method of inhibiting profileration of cells by administering an aminosterol compound” (priority 1995, dated 1998).
Values after ≈ are worked out from the molar mass of the structure shown.

Legend:
[1] = tested on: P. aerug; experiment: antibiotic activity (MIC); type: cell-based
[2] = tested on: stage 59-60 Xenopus tadpoles; settings: for tadpole response similar to compound 1436 / tadpole response similar to compound 1437 / tadpole response similar to FX 3 / tadpole response similar to Fraction 1: tadpole assay
[3] = tested on: chick embryo vitelline capillaries; experiment: chick embryo vitelline capillary regression assay; type: in vivo; parameters: key to vitelline capillary regression: +: Vascular reactivity; 0: No vascular reactivity; +/-: Equivocal reactivity; settings: for vitelline capillary regression: 60 minutes
Procedure: Using the chick embryo vitelline capillaries assay, compounds were tested for their ability to induce capillary regression. Each compound was applied in 0.1 ml of 15% Ficol 400 and PBS onto the embryo, and vascular regression was assessed after 60 minutes.
The 3-day chick embryo consists of an embryonic disc from which numerous vessels emerge and return, forming a "figure 8"-shaped structure--the embryo in the center with vascular loops extending outward over both poles. […] Following a lag period of around 15 minutes, the constriction of continuity between capillary and secondary vessels, generally on the "venous" side, was observed. Continued pulsatile blood flow progressed, resulting in a "swelling" of the blind tube, followed by a pinching off of the remaining connection and formation of an enclosed vascular sac resembling a "blood island." This process progressed until only the largest vessels remained intact.

COC(=O)CCC(C)[C@H]1CCC2C3CC[C@H]4C[C@H](NCCCNCCCCNCCCN)CC[C@]4(C)C3CC[C@@]21C (stereo partly drawn) [drawing 74]
MIC [1]: 64 µg/mL (≈ 111 µM)

CC(CCC(=O)O)[C@H]1CCC2C3C[C@@H](O)[C@H]4C[C@@H](NCCCNCCCCNCCCN)CC[C@]4(C)C3CC[C@@]21C (stereo partly drawn)
MIC [1]: 8 µg/mL (≈ 13.9 µM)

C[C@H](CCC(=O)O)[C@H]1CC[C@H]2[C@@H]3[C@H](O)C[C@@H]4C[C@@H](NCCCNCCCCNCCCN)CC[C@]4(C)[C@H]3CC[C@]12C [Compound 413]
tadpole response similar to compound 1436 [2]: produce effects like those produced by compound 1436 | vitelline capillary regression ([3]; 1 μg applied): 0

COC(=O)CCC(C)[C@H]1CCC2C3C(CC[C@@]21C)[C@@]1(C)CC[C@H](NCCCNCCCCNCCCN)C[C@H]1C[C@H]3O (stereo partly drawn)
MIC [1]: 64 µg/mL (≈ 108 µM)

COC(=O)CC[C@@H](C)[C@H]1CC[C@H]2[C@@H]3CC[C@@H]4C[C@H](NCCN)CC[C@]4(C)[C@H]3C[C@H](O)[C@]12C [Compound 416]
tadpole response similar to compound 1437 [2]: functionally similar to compound 1437

COC(=O)CC[C@@H](C)[C@H]1CC[C@H]2[C@@H]3CC[C@H]4C[C@@H](NCCCNCCCCNCCCN)CC[C@]4(C)[C@H]3CC[C@]12C [Compound 459]
tadpole response similar to FX 3 [2]: exhibiting pharmacologic activity similar to that seen for FX 3

COC(=O)CCC(C)[C@H]1CCC2C3CC[C@@H]4C[C@H](NCCN)CC[C@]4(C)C3C[C@H](O)[C@@]21C (stereo partly drawn)
MIC [1]: 16 to 32 µg/mL (≈ 35.7 to 71.3 µM)

COC(=O)CC[C@@H](C)[C@H]1CC[C@H]2[C@@H]3[C@H](O)C[C@@H]4C[C@H](NCCN)CC[C@]4(C)[C@H]3CC[C@]12C [Compound 410]
tadpole response similar to compound 1437 [2]: functionally similar to compound 1437 | vitelline capillary regression ([3]; 0.001 μg applied): 0 | vitelline capillary regression ([3]; 0.01 μg applied): +/- | vitelline capillary regression ([3]; 0.1 μg applied): +/- | vitelline capillary regression ([3]; 1 μg applied): +

CC(C)CCC[C@@H](C)[C@H]1CC[C@H]2[C@@H]3[C@H](O)C[C@H]4C[C@@H](NCCCNCCCCN)CC[C@]4(C)[C@H]3CC[C@]12C [Compound 371]
tadpole response similar to compound 1436 [2]: produce effects like those produced by compound 1436 | vitelline capillary regression ([3]; 0.001 μg applied): 0 | vitelline capillary regression ([3]; 0.01 μg applied): 0 | vitelline capillary regression ([3]; 0.1 μg applied): 0 | vitelline capillary regression ([3]; 1 μg applied): +/- | vitelline capillary regression ([3]; 10 μg applied): +

C[C@H](CCC(=O)O)[C@H]1CC[C@H]2[C@@H]3[C@H](O)C[C@H]4C[C@H](NCCCNCCCCN)CC[C@]4(C)[C@H]3CC[C@]12C [Compound 382]
vitelline capillary regression ([3]; 0.001 μg applied): 0 | vitelline capillary regression ([3]; 0.01 μg applied): 0 | vitelline capillary regression ([3]; 0.1 μg applied): 0 | vitelline capillary regression ([3]; 1 μg applied): + | vitelline capillary regression ([3]; 10 μg applied): +

COC(=O)CC[C@@H](C)[C@H]1CC[C@H]2[C@@H]3[C@H](O)C[C@H]4C[C@@H](NCCCNCCCCNCCCN)CC[C@]4(C)[C@H]3CC[C@]12C [Compound 396]
vitelline capillary regression ([3]; 1 μg applied): +

C[C@H](CCC(=O)O)[C@H]1CC[C@H]2[C@@H]3[C@H](O)C[C@@H]4C[C@H](NCCCNCCCCNCCCN)CC[C@]4(C)[C@H]3CC[C@]12C [Compound 412]
tadpole response similar to FX 3 [2]: exhibiting pharmacologic activity similar to that seen for FX 3 | vitelline capillary regression ([3]; 0.001 μg applied): 0 | vitelline capillary regression ([3]; 0.01 μg applied): 0 | vitelline capillary regression ([3]; 0.1 μg applied): 0 | vitelline capillary regression ([3]; 1 μg applied): +

COC(=O)CC[C@@H](C)[C@H]1CC[C@H]2[C@@H]3[C@H](O)C[C@@H]4C[C@@H](NCCN)CC[C@]4(C)[C@H]3CC[C@]12C [Compound 409]
tadpole response similar to compound 1437 [2]: functionally similar to compound 1437 | vitelline capillary regression ([3]; 1 μg applied): 0

CC(C)CCC[C@@H](C)[C@H]1CC[C@H]2[C@@H]3[C@H](O)C[C@H]4C[C@H](NCCCNCCCCN)CC[C@]4(C)[C@H]3CC[C@]12C [Compound 370]
tadpole response similar to FX 3 [2]: exhibiting pharmacologic activity similar to that seen for FX 3

COC(=O)CC[C@@H](C)[C@H]1CC[C@H]2[C@@H]3CC[C@H]4C[C@H](NCCCNCCCCNCCCN)CC[C@]4(C)[C@H]3CC[C@]12C [Compound 458]
tadpole response similar to FX 3 [2]: exhibiting pharmacologic activity similar to that seen for FX 3

COC(=O)CC[C@@H](C)[C@H]1CC[C@H]2[C@@H]3C[C@@H](O)[C@H]4C[C@@H](NCCCNCCCCNCCCN)CC[C@]4(C)[C@H]3CC[C@]12C [Compound 466]
tadpole response similar to FX 3 [2]: exhibiting pharmacologic activity similar to that seen for FX 3

CC(C)CCC[C@@H](C)[C@H]1CC[C@H]2[C@@H]3[C@H](O)C[C@H]4C[C@@H](N)CC[C@]4(C)[C@H]3CC[C@]12C [Compound 1364]
vitelline capillary regression ([3]; 0.001 μg applied): 0 | vitelline capillary regression ([3]; 0.01 μg applied): 0 | vitelline capillary regression ([3]; 0.1 μg applied): 0 | vitelline capillary regression ([3]; 1 μg applied): + | vitelline capillary regression ([3]; 10 μg applied): +

CC(C)C(CCC(C)C1CCC2C3C(O)CC4CC(NCCCNCCCCN)CCC4(C)C3CCC12C)OS(=O)(=O)O (stereo not drawn)
Tadpole: GI (gastrointestinal) ([2]; 10 μg/mL): - | Tadpole: M (melanocytes) ([2]; 10 μg/mL): - | Tadpole: Mus (muscle) ([2]; 10 μg/mL): - | Tadpole: V (vascular) ([2]; 10 μg/mL): +

CC(C)CCC[C@@H](C)[C@H]1CC[C@H]2[C@@H]3[C@H](O)C[C@H]4C[C@H](N)CC[C@]4(C)[C@H]3CC[C@]12C [Compound 1363]
tadpole response similar to Fraction 1 [2]: pharmacologic activity similar to Fraction 1

C[C@H](CCC(=O)O)[C@H]1CC[C@H]2[C@@H]3[C@H](O)C[C@H]4C[C@@H](NCCCNCCCCN)CC[C@]4(C)[C@H]3CC[C@]12C [Compound 381]
vitelline capillary regression ([3]; 1 μg applied): 0

C[C@H](CCC(=O)O)[C@H]1CC[C@H]2[C@@H]3[C@H](O)C[C@@H]4C[C@@H](NCCN)CC[C@]4(C)[C@H]3CC[C@]12C [Compound 415]
vitelline capillary regression ([3]; 0.001 μg applied): 0 | vitelline capillary regression ([3]; 0.01 μg applied): + | vitelline capillary regression ([3]; 0.1 μg applied): + | vitelline capillary regression ([3]; 1 μg applied): + | activity in vitelline capillary regression assay (in words) ([3]; in vivo): especially active

C[C@H](CCC(=O)O)[C@H]1CC[C@H]2[C@@H]3C[C@@H](O)[C@H]4C[C@@H](NCCN)CC[C@]4(C)[C@H]3CC[C@]12C [Compound 433]
tadpole response similar to compound 1437 [2]: functionally similar to compound 1437

CC(C)C(CCC(C)C1CCC2C3C(O)CC4CC(NCCCNCCCCNCCCN)CCC4(C)C3CCC12C)OS(=O)(=O)O (stereo not drawn)
Tadpole: E (epithelial) ([2]; 10 μg/mL): ± | Tadpole: M (melanocytes) ([2]; 10 μg/mL): + | Tadpole: Mus (muscle) ([2]; 10 μg/mL): - | Tadpole: V (vascular) ([2]; 10 μg/mL): +

C[C@H](CCC(=O)O)[C@H]1CC[C@H]2[C@@H]3CC[C@H]4C[C@H](NCCCNCCCCN)CC[C@]4(C)[C@H]3CC[C@]12C [Compound 318]
vitelline capillary regression ([3]; 1 μg applied): 0

COC(=O)CC[C@@H](C)[C@H]1CC[C@H]2[C@@H]3C[C@@H](O)[C@H]4C[C@H](NCCN)CC[C@]4(C)[C@H]3CC[C@]12C [Compound 431]
tadpole response similar to compound 1437 [2]: functionally similar to compound 1437

C[C@H](CCC(=O)O)[C@H]1CC[C@H]2[C@@H]3[C@H](O)C[C@@H]4C[C@H](NCCN)CC[C@]4(C)[C@H]3CC[C@]12C [Compound 414]
tadpole response similar to Fraction 1 [2]: pharmacologic activity similar to Fraction 1 | vitelline capillary regression ([3]; 1 μg applied): 0

COC(=O)CC[C@@H](C)[C@H]1CC[C@H]2[C@@H]3C[C@@H](O)[C@H]4C[C@@H](NCCN)CC[C@]4(C)[C@H]3CC[C@]12C [Compound 432]
tadpole response similar to compound 1437 [2]: functionally similar to compound 1437

CC(C)CCC[C@@H](C)[C@H]1CC[C@H]2[C@@H]3CC[C@H]4C[C@@H](NCCCNCCCCN)CC[C@]4(C)[C@H]3CC[C@]12C [Compound 303]
vitelline capillary regression ([3]; 1 μg applied): 0

COC(=O)CC[C@@H](C)[C@H]1CC[C@H]2[C@@H]3C[C@@H](O)[C@H]4C[C@H](NCCCNCCCCNCCCN)CC[C@]4(C)[C@H]3CC[C@]12C [Compound 465]
tadpole response similar to FX 3 [2]: exhibiting pharmacologic activity similar to that seen for FX 3
